pIC50: −log10 of the molar value.
Target: Protein farnesyltransferase (Rattus norvegicus, UniProt Q02293+Q04631)
Test: Tested for inhibitory activity against rat brain p21ras Ras Farnesyltransferase (FTase)

Question: With `CSCC[C@@H](NC(=O)CN1C(=O)[C@H](N(C)C(=O)[C@@H](N)CS)N=C(c2ccccc2)c2ccccc21)C(=O)O` as the compound, how does the pIC50 read?
Answer: Its pIC50 is 7.10.

Question: `CSCC[C@H](NC(=O)CN1C(=O)[C@H](N(C)C(=O)[C@@H](N)CS)N=C(c2ccccc2)c2ccccc21)C(=O)O` (stereo in doubt; form 1) was tested. Which pIC50 did it give?
Answer: The pIC50 was 6.43.

Question: `CSCC[C@H](NC(=O)CN1C(=O)[C@H](N(C)C(=O)[C@@H](N)CS)N=C(c2ccccc2)c2ccccc21)C(=O)O` (stereo in doubt; form 2) was tested. Which pIC50 did it give?
Answer: Its pIC50 is 9.07.

Question: `CSCC[C@H](NC(=O)CN1C(=O)[C@H](N(C)C(=O)[C@@H](N)CS)N=C(c2ccccc2)c2ccccc21)C(=O)O` (stereo in doubt; form 3) was tested. Which pIC50 did it give?
Answer: Its pIC50 is 8.68.
